Measured values published in patent US20250099431A1, “GLP-1R MODULATING COMPOUNDS” (priority 2020, published 2025).
Where two headings read alike, the source gives them in different places.

How the values were obtained:
[1] = Microsomal stability (liver microsomal assay, mixed cofactors); predicted hepatic clearance; type: in vitro ADME; settings: liver microsomes 1.0 mg protein/mL (+UDPGA +NADPH), 1 μM analyte, 37° C.; scaled with human liver weight and hepatic blood flow 1.3 L/hr/kg
Procedure: Metabolic stability of compounds was assessed using human or rat liver microsomal assays (Corning). In these assays, 10 nL of each analyte at a concentration of 1 mM in 100% DMSO was dispensed into a well of a polypropylene plates using the Echo 550 acoustic liquid dispenser (Labcyte®). Each plate contained 384 wells with a single analyte in each well.
A solution of human (Corning® Gentest™ Human Mixed Pooled Microsomes or rat (Corning® Gentest™ Rat [Sprague-Dawley] Pooled Liver Microsomes) liver microsomes at 2 mg/ml in 100 mM K2HPO4/KH2PO4 at pH 7. 4 was combined with alamethicin from Trichoderma viride (Sigma-Aldrich) 0.0225 mg/ml. The mixture was incubated on ice for 15 minutes. 5 μL of this mixture was added to individual wells following a 15 minute incubation at room temperature and supplemented with 5 μL NADPH Regenerating Solution of cofactors (Corning® Gentest™ UGT Reaction Mix) containing 100 mM K2HPO4/KH2PO4 at pH 7.4, 2.6 mM NADP+, 6.6 mM glucose-6-phosphate, 6.6 mM MgCl2, 0.8 U/mL glucose-6-phosphate dehydrogenase, 0.1 mM sodium citrate, and 6.8 mM uridine diphosphate-glucuronic acid. The final concentration of each analyte compound at the beginning of the reaction was 1 μM. The reactions were incubated at 37° C. and samples were collected at time points of 0, 5, 15, 30, 40, 50, 60, and 70 minutes for further analysis. Background data were collected using reactions without analyte compounds.
Upon collection of the sample time points, samples were quenched with 30 μL of a solution of 72% acetonitrile, 8% methanol, 0.1% formic acid, 19.9% water, and internal standard (IS). Reaction plates were spun in a centrifuge at speed of 4,000 rcf for 30 minutes at 4° C., following a dilution of the 10 μL quenched reaction into 40 μL de-ionized water, yielding assay plates.
Assay plates were analyzed using solid-state extraction coupled with quadrupole time-of-flight mass spectrometer, using Agilent QToF 6530 RapidFire 360 system, with C4 type A solid state cartridges. Analysis was performed in either positive or negative ionization modes. Mobile phases contained 0.1% formic acid in water for loading analytes onto solid state extraction cartridges and 0.1% formic acid in acetonitrile for elution into a mass spectrometer in positive ionization mode, or 0.1% acetic acid in water for loading and 0.1% acetic acid in acetonitrile for extraction in negative ionization mode. Peak-area ratios of integrated counts for individual compounds to IS were plotted as semi-logarithmic chart of log vs time. The initial linear portion of decay was fitted to a linear regression equation to derive the half-time of analyte decay.
Pharmacological parameters for an analyte compound metabolism were calculated using the following equations: […]
wherein concentration refers to the protein concentration (mg/ml) in the reaction.
This scales the in vitro intrinsic clearance up to the value that would be predicted for the entire mass of liver tissue (but with no restriction by blood flow). The value depends upon the size of the liver (species-dependent) and the yield of microsomal protein as appropriate (assumed to be species-independent).
Hepatic clearance will depend upon the inter-relationship of intrinsic clearance and hepatic blood flow and was predicted from in vitro data using a variety of approaches.
The hepatic extraction is reported as the predicted clearance expressed as a proportion of hepatic blood flow.

GLP-1R = GLP-1R (Homo sapiens (Human), UniProt P43220); test: GLP-1R activation: cAMP increase in CHO cells stably expressing GLP-1R; type: cell-based; settings: 10 point dose response, 30 minutes incubation at 37° C.
Procedure: GLP-1R activation by a compound of the present disclosure was quantified by measuring cAMP increase in CHO cells stably expressing GLP-1R (MultiSpan product #C1267-1a). […] The cells were then incubated overnight at 37° C., 5% CO2. […] 1% BSA (Rockland Immunochemicals product #BSA-1000)). Following the medium change, the cells were incubated for 1 hour at 37° C., 5% CO2. The tested GLP-1 compound was added to the cells in a 10 point dose response followed by a 30 minutes incubation at 37° C., 5% CO2. cAMP concentration increase was then detected using Cisbio's cAMP Gs Dynamic Kit (product #62AM4PEC) according to the manufacturer's protocol. The response was plotted against the log of the agonist concentration and fitted to a sigmoidal equation to determine the EC50.

Chain of GLP-1R (P43220 24-463): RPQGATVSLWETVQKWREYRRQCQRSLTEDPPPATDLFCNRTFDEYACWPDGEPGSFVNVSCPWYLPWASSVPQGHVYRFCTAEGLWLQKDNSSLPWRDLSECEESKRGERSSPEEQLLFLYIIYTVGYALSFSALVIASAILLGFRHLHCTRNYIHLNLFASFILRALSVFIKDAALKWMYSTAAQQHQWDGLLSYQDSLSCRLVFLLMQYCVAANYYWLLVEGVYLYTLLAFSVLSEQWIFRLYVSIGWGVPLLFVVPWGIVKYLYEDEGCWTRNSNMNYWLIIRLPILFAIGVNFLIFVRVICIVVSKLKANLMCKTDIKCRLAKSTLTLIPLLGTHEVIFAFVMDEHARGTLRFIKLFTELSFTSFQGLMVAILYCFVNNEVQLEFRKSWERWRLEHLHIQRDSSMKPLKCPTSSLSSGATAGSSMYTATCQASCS

| Structure (SMILES) | Predicted Hepatic Clearance (Pred. Cl.) [1] [mL/min/kg] | EC50 (GLP-1R; cAMP increase, read-out: EC50) [nM] | EC50 (GLP-1R; EC50, cAMP increase) [nM] |
| --- | --- | --- | --- |
| CC1(c2ccc(Cl)cc2F)Oc2cccc(-c3cc(F)c(Cc4nc5ccc(C(=O)O)cc5n4C[C@@H]4CCO4)c(F)c3)c2O1 (single isomer, unassigned) [Example 47] | 3.17 | – | 0.07 |
| CC1(c2ccc(Cl)cc2F)Oc2cccc(-c3cc(F)c(Cc4nc5ccc(C(=O)O)cc5n4C[C@@H]4CCO4)c(F)c3)c2O1 (single isomer, unassigned) [Example 48] | 2 | – | 1.2 |
| CC1(c2ccc(Cl)cn2)Oc2cccc(-c3cc(F)c(Cc4nc5ccc(C(=O)O)cc5n4C[C@@H]4CCO4)c(F)c3)c2O1 (single isomer, unassigned) [Example 50] | 3.17 | 16 | – |
| CC1(c2ccc(C#N)cc2F)Oc2cccc(-c3cc(F)c(Cc4nc5ccc(C(=O)O)cc5n4C[C@@H]4CCO4)c(F)c3F)c2O1 (single isomer, unassigned) [Example 94] | 7 | 0.32 | – |
| CC1(c2ccc(Cl)cc2F)Oc2cccc(-c3cc(F)c(Cc4nc5c(F)cc(C(=O)O)cc5n4CC4(CC#N)CC4)c(F)c3)c2O1 (single isomer, unassigned) [Example 105, 2-(4-(2-(4-chloro-2-fluorophenyl)-2-methylbenzo[d][1, 3]dioxol-4-yl)-2,6-difluorobenzyl)-1-((1-(cyanomethyl)cyclopropyl)methyl)-4-fluoro-1H-benzo[d]imidazole-6-carboxylic acid] | 1.83 | 2.6 | – |
| CC1(c2ccc(Cl)cc2F)Oc2cccc(-c3cc(F)c(Cc4nc5ccc(C(=O)O)cc5n4CC4(CC#N)CC4)c(F)c3)c2O1 (centres unmarked) [Example 1, 2-(4-(2-(4-chloro-2-fluorophenyl)-2-methylbenzo[d][1, 3]dioxol-4-yl)-2,6-difluorobenzyl)-1-((1-(cyanomethyl)cyclo-propyl)methyl)-1H-benzo[d]imidazole-6-carboxylic acid] | <1.83 | 0.51 | – |
| CC1(c2ccc(Cl)cc2F)Oc2cccc(-c3cc(F)c(Cc4nc5ccc(C(=O)O)c(F)c5n4C[C@@H]4CCO4)c(F)c3)c2O1 (stereo partly drawn) [Example 2, 2-(4-(2-(4-chloro-2-fluorophenyl)-2-methylbenzo[d][1, 3]dioxol-4-yl)-2,6-difluorobenzyl)-7-fluoro-1-(((S)-oxetan-2-yl)methyl)-1H-benzo[d]imidazole-6-carboxylic acid] | <1.83 | 0.17 | – |
| COCCn1c(Cc2c(F)cc(-c3cccc4c3OC(c3ccc(C#N)cc3F)O4)cc2F)nc2ccc(C(=O)O)cc21 (centres unmarked) [Example 5, 2-(4-(2-(4-cyano-2-fluorophenyl)benzo[d][1, 3]dioxol-4-yl)-2,6-difluorobenzyl)-1-(2-methoxyethyl)-1H-benzo[d]imidazole-6-carboxylic acid] | <1.83 | 161 | – |

Now from value to compound, other results behind:

| Predicted Hepatic Clearance (Pred. Cl.) [1] [mL/min/kg] | EC50 (GLP-1R; cAMP increase, read-out: EC50) [nM] | Structure (SMILES) | EC50 (GLP-1R; EC50, cAMP increase) [nM] |
| --- | --- | --- | --- |
| 4.33 | 17 | CC1(c2ccc(Cl)cn2)Oc2cccc(-c3cc(F)c(Cc4nc5ccc(C(=O)O)cc5n4C[C@@H]4CCO4)cc3F)c2O1 (single isomer, unassigned) [Example 46] | – |
| 3.33 | 0.31 | CC1(c2ccc(Cl)cn2)Oc2cccc(-c3cc(F)c(Cc4nc5ccc(C(=O)O)cc5n4C[C@@H]4CCO4)c(F)c3)c2O1 (single isomer, unassigned) [Example 49] | – |
| 2.67 | 3.3 | CC1(c2ccc(C#N)cc2F)Oc2cccc(-c3cc(F)c(Cc4nc5ccc(C(=O)O)cc5n4C[C@@H]4CCO4)c(F)c3)c2O1 (single isomer, unassigned) [Example 92] | – |
| 6 | 0.52 | CC1(c2ccc(C#N)cc2F)Oc2cccc(-c3cc(F)c(Cc4nc5ccc(C(=O)O)cc5n4C[C@@H]4CCO4)c(F)c3)c2O1 (single isomer, unassigned) [Example 93] | – |
| 2.83 | 21 | CC1(c2ccc(C#N)cc2F)Oc2cccc(-c3cc(F)c(Cc4nc5ccc(C(=O)O)cc5n4C[C@@H]4CCO4)c(F)c3F)c2O1 (single isomer, unassigned) [Example 95] | – |
| 3.5 | 57 | COCCn1c(Cc2c(F)cc(-c3cccc4c3OC(C)(c3ccc(C#N)cc3F)O4)c(F)c2F)nc2ccc(C(=O)O)cc21 (single isomer, unassigned) [Example 96, 2-(4-(2-(4-cyano-2-fluorophenyl)-2-methylbenzo[d][1, 3]dioxol-4-yl)-2,3,6-trifluorobenzyl)-1-(2-methoxyethyl)-1H-benzo[d]imidazole-6-carboxylic acid] | – |
| 15.2 | 1.9 | COCCn1c(Cc2c(F)cc(-c3cccc4c3OC(C)(c3ccc(C#N)cc3F)O4)c(F)c2F)nc2ccc(C(=O)O)cc21 (single isomer, unassigned) [Example 97, 2-(4-(2-(4-cyano-2-fluorophenyl)-2-methylbenzo[d][1, 3]dioxol-4-yl)-2,3,6-trifluorobenzyl)-1-(2-methoxyethyl)-1H-benzo[d]imidazole-6-carboxylic acid] | – |
| 3.5 | 67 | COCCn1c(Cc2c(F)cc(-c3cccc4c3OC(C)(c3ccc(C#N)cc3F)O4)cc2F)nc2ccc(C(=O)O)cc21 (single isomer, unassigned) [Example 98, 2-(4-(2-(4-cyano-2-fluorophenyl)-2-methylbenzo[d][1, 3]dioxol-4-yl)-2,6-difluorobenzyl)-1-(2-methoxyethyl)-1H-benzo[d]imidazole-6-carboxylic acid] | – |
| 11.3 | 2.4 | COCCn1c(Cc2c(F)cc(-c3cccc4c3OC(C)(c3ccc(C#N)cc3F)O4)cc2F)nc2ccc(C(=O)O)cc21 (single isomer, unassigned) [Example 99, 2-(4-(2-(4-cyano-2-fluorophenyl)-2-methylbenzo[d][1, 3]dioxol-4-yl)-2,6-difluorobenzyl)-1-(2-methoxyethyl)-1H-benzo[d]imidazole-6-carboxylic acid] | – |
| 15.2 | 0.64 | CC1(c2ccc(Cl)cc2F)Oc2cccc(-c3cc(F)c(Cc4nc5c(F)cc(C(=O)O)cc5n4CC4(CC#N)CC4)c(F)c3)c2O1 (single isomer, unassigned) [Example 106, 2-(4-(2-(4-chloro-2-fluorophenyl)-2-methylbenzo[d][1, 3]dioxol-4-yl)-2,6-difluorobenzyl)-1-((1-(cyanomethyl)cyclopropyl)methyl)-4-fluoro-1H-benzo[d]imidazole-6-carboxylic acid] | – |
| 4.17 | 103 | COCCn1c(Cc2ccc(-c3cccc4c3OC(c3ccc(C#N)cc3F)O4)cc2F)nc2ccc(C(=O)O)cc21 (centres unmarked) [Example 4, 2-(4-(2-(4-cyano-2-fluorophenyl)benzo[d][1, 3]dioxol-4-yl)-2-fluorobenzyl)-1-(2-methoxyethyl)-1H-benzo[d]imidazole-6-carboxylic acid] | – |
